Here are results for eight compounds from patent US20260317319A1, “NOVEL ERGOLINES AND METHODS OF TREATING MOOD DISORDERS” (Gilgamesh Pharma Inc., priority 2023, published 2026).

Where two headings read alike, the source gives them in different places.

In general, EC50 refers to the concentration needed to bring the measured effect to its halfway point. As usually defined, the Ki is a measure of affinity in units of concentration, obtained from inhibition or displacement. Low readings indicate higher affinity, high ones lower affinity.

One data set deals with T1, 5-HT2B receptor (Homo sapiens, UniProt P41595).
T1 construct: expressed in transfected cells; host or cells: HEK293, stably transfected
The data set can be described thus: cell-based. To be noted: Ca2+ flux; for Emax: HEK293, agonist, HEK293, max dose, read-out: 5-HT2B % Act @ Max Dose; for EC50: agonist, HEK293. It is filed as cell-based. In a few lines: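 FLIPR Tetra fluorescence read-out of calcium flux after compound addition. Receptor-expressing stable lines were used (HEK293 for 2A/2B; CHO with Gα15 for 1A), dye-loaded with Fluo-4 Direct and 2.5 mM final probenecid, 50 min at 37 °C.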

A further data set has as its target T2, 5-HT2C receptor (Homo sapiens, UniProt P28335).
T2 sequence (P28335 33-458): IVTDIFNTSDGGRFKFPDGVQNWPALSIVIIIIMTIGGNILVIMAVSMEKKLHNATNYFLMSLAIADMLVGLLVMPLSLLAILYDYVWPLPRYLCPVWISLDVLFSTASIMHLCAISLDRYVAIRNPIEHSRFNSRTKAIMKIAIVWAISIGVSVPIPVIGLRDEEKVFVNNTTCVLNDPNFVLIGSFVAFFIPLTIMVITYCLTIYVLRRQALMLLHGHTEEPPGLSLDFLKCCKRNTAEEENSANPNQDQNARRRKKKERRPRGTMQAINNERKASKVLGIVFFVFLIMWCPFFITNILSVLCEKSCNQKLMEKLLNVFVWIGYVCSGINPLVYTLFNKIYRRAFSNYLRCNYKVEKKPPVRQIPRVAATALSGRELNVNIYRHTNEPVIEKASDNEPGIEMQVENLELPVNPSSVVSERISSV
The data set can be described thus: cell-based. To be noted: read-out: 5-HT2C % Act @ Max Dose.

A further data set deals with T3, 5-HT1A receptor (Homo sapiens, UniProt P08908).
T3 construct: expressed in transfected cells; host or cells: CHO cells, stably transfected
T3 sequence (P08908 1-422): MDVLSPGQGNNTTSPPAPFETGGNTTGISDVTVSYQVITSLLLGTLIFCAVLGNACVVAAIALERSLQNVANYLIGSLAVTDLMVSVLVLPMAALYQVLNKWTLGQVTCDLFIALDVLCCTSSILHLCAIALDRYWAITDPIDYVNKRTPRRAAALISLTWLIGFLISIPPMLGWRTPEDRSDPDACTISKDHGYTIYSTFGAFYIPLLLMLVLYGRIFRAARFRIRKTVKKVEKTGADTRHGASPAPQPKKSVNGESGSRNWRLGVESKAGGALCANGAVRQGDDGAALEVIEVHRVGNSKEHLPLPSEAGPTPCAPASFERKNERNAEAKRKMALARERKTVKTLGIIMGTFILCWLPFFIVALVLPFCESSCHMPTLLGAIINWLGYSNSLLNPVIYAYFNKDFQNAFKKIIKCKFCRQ
The data set can be described thus: cell-based. Conditions: agonist, Ca2+ flux; for Emax: CHO, CHO cells with Gα15, max dose, read-out: 5-HT1A % Act @ Max Dose; for EC50: CHO cells with Gα15. The method, boiled down:
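Receptor agonism was assessed as intracellular calcium mobilization in stably transfected cells, with CHO cells additionally carrying Gα15 for the 5-HT1A readout. Calcium was monitored with Fluo-4 Direct dye.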
Background: Calcium flux is commonly read through the fluorescence of an indicator in the cells.

Data set [1] addresses T4, 5-HT2A receptor (Homo sapiens, UniProt P28223). The data set can be described thus: cell-based. It is filed as cell-based. To be noted: agonist, beta-arrestin recruitment; for Emax: max dose, read-out: 5-HT2A Arrestin % Act @ Max Dose; for EC50: PathHunter, read-out: 5-HT2A Arrestin EC50. The method, then:
Arrestin Functional Assay at 5-HT2A. Recruitment of beta-arrestin was determined using a PathHunter assay at Eurofins DiscoverX (Fremont, CA) according to their standard protocols. PathHunter GPCR beta-arrestin assays take advantage of DiscoverX's proprietary Enzyme Fragment Complementation technology. The GPCR is fused in frame with a small enzyme donor fragment ProLink™ (PK) and co-expressed in cells stably expressing a fusion protein of beta-arrestin and the larger, N-terminal deletion mutant of beta-galactosidase. Activation of the GPCR (5-HT2A receptor in this case) stimulates binding of beta-arrestin to the PK-tagged GPCR and forces complementation of the two enzyme fragments, resulting in the formation of an active beta-galactosidase enzyme. This interaction leads to an increase in enzyme activity that can be measured using chemiluminescent PathHunter Detection Reagents. Briefly, PathHunter cells expressing 5-HT2A receptors were seeded in a volume of 20 μL into 384-well plates and incubated at 37° C. for the appropriate time prior to testing. […] Plates were then imaged on a microplate reader and the agonist activity was calculated using the following formula: % Activity=100%×(mean RLU of test sample-mean RLU of vehicle control)/(mean MAX control ligand-mean RLU of vehicle control), where RLU=relative light units.
For orientation: Activated receptors often draw arrestin, which recruitment assays turn into a signal.

A short description of data set [2]: in vitro. Conditions: HLM 0.50 mg/mL, NADPH 1 mM, 1 μM compound, pH 7.4, 37° C., 60 min; for microsomal CLint / half-life: human, microsomes; for microsomal CLint: read-out: Intrinsic clearance (Clint); for half-life: read-out: half-life (t1/2). It is filed as in vitro ADME, human.
The nature of data set [3]: in vitro. It is filed as in vitro ADME, mouse. Conditions: MLM (male CD-1) 0.50 mg/mL, NADPH 1 mM, 1 μM compound, pH 7.4, 37° C., 60 min; for microsomal CLint / half-life: mouse, microsomes; for microsomal CLint: read-out: Intrinsic clearance (Clint); for half-life: read-out: half-life (t1/2). An excerpt: MLM Stability Pooled MLM from male CD-1 mice (BIOIVT M00501) were used.

Data set [4] can be described thus: in vitro. It counts as in vitro ADME, rat. To be noted: RLM (male Sprague-Dawley) 0.50 mg/mL, NADPH 1 mM, 1 μM compound, pH 7.4, 37° C., 60 min; for microsomal CLint / half-life: rat, microsomes; for microsomal CLint: read-out: Intrinsic clearance (Clint); for half-life: read-out: half-life (t1/2). The text has this: RLM Stability Pooled RLM from male Sprague-Dawley rats (Xenotech R1000) were used.

Data set [5] deals with T4, 5-HT2A receptor. The data set can be described thus: cell-based. It is filed as cell-based. The arrangement: expressed in transfected cells; host or cells: HEK293, stably transfected. To be noted: Ca2+ flux; for Emax: HEK293, agonist, HEK293, max dose, read-out: 5-HT2A % Act @ Max Dose; for EC50: agonist, HEK293. In a few lines:
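Agonism measured as calcium flux on FLIPR Tetra. Receptor lines: HEK293 for 5-HT2A and 5-HT2B, CHO with Gα15 for 5-HT1A; dye loading with Fluo-4 Direct and probenecid (2.5 mM final) ran 50 min at 37 °C before compound addition and signal reading.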

Another data set addresses T5, 5-HT1B receptor (Homo sapiens, UniProt P28222).
T5 construct: expressed in transfected cells
The data set can be described thus: cAMP accumulation functional assay at 5-HT1B. It counts as cell-based. Conditions: agonist, cAMP accumulation; for Emax: max dose, read-out: 5-HT1B % Act @ Max Dose. In a few lines: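 Stably transfected human 5-HT1B cells were incubated 60 min at room temperature, after which detection reagent was applied for another 60 min at RT. The read-out was cAMP accumulation, used as a measure of agonist activity.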
On the technique in general: Cyclic AMP is a second messenger, typically raised through Gs and lowered through Gi signalling.

Data set [6] has as its target T4, 5-HT2A receptor. The data set can be described thus: biochemical. It is filed as binding. Conditions: [3H]ketanserin 1 nM; HEK293 stable cell line; 1 h, 25 °C. The arrangement: expressed in transfected cells; host or cells: HEK293, stably transfected. In a few lines:
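Test compounds competed with [^3H]ketanserin for receptor binding, and affinity was derived from the radioligand displacement.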

Where [7] appears, read: agonist, Ca2+ flux, Eurofins DiscoverX protocol, max dose.

T4 sequence (P28223 whole entry, the tested form may be a part): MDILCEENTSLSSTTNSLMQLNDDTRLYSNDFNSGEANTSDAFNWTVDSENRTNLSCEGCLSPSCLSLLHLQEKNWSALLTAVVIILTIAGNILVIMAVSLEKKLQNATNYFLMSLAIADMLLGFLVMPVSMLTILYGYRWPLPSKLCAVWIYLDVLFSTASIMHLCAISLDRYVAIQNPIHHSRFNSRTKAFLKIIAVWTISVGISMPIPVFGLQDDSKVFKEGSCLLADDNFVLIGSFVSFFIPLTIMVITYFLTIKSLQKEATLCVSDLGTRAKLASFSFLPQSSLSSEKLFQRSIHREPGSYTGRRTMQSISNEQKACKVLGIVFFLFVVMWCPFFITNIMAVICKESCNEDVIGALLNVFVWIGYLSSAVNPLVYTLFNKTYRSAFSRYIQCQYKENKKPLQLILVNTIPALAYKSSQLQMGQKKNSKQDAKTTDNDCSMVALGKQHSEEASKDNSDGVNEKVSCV
T1 sequence (P41595 whole entry): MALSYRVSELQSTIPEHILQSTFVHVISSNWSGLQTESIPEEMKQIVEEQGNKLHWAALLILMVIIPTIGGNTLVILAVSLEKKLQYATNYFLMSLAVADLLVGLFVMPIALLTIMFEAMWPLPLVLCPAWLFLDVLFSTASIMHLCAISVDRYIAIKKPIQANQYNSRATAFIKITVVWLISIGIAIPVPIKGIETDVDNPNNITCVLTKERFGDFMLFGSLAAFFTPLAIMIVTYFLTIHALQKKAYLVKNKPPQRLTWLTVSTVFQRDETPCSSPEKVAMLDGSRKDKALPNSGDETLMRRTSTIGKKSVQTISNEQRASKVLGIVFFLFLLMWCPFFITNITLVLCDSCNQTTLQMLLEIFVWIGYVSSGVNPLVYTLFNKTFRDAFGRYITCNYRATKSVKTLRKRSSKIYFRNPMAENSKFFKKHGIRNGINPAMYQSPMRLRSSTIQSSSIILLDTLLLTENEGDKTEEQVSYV
T5 sequence (P28222 whole entry): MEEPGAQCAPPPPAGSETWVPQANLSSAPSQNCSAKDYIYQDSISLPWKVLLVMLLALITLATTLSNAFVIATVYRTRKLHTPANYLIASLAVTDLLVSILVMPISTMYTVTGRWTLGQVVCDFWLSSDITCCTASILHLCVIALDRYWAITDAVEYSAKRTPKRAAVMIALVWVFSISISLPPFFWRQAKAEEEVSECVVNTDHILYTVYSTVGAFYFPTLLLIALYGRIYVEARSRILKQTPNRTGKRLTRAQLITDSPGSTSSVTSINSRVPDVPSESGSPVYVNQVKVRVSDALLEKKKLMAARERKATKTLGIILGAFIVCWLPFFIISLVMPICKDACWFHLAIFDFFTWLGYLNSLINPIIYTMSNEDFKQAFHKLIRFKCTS

Turning to `C=CCN1C[C@@H](C(=O)N[C@H](C)CC)C=C2c3cccc4[nH]cc(c34)C[C@H]21` [Compound 8a, (6aR,9S)-7-allyl-N—((R)-sec-butyl)-4,6,6a,7,8,9-hexahydroindolo[4,3-fg]quinoline-9-carboxamide], the Emax was found to be 35.7% on 5-HT2B receptor; 13.3% on 5-HT2C receptor (setting [7]); 90.3% at 5-HT1A receptor; 81.1% at 5-HT2A receptor [1]; 87.5% at 5-HT2A receptor [5]. For the same compound, the entries for the “half-life (t1/2)” value in “in vitro [2]”, in the data set “in vitro [3]” and in the data set “in vitro [4]” were 3.4 min, 0.8 min and 1.7 min, respectively.

As for `CCC[C@@H](C)NC(=O)[C@H]1C=C2c3cccc4[nH]cc(c34)C[C@H]2N(C)C1` [Int17a], the Emax on 5-HT2B receptor is 5.63%; on 5-HT2C receptor, 112%; on 5-HT1A receptor, 88.5%; on 5-HT2A receptor [1], 43.7%; at 5-HT2A receptor [5] it was 63.3%.

As to `CCNC(=O)[C@@H]1C=C2c3cccc4[nH]cc(c34)C[C@H]2N(Cc2cccc(O)c2)C1` [Compound 64, (6aR,9R)—N-ethyl-7-(3-hydroxybenzyl)-4,6,6a,7,8,9-hexahydroindolo[4,3-fg]quinoline-9-carboxamide], the Emax on 5-HT2B receptor is 1.49%; on 5-HT1A receptor, 87%; on 5-HT1B receptor, 68.8%; on 5-HT2A receptor [1] it was 52%; on 5-HT2A receptor [5] it was 75.8%. Further, the EC50 at 5-HT2B receptor is more than 10000 nM; on 5-HT1A receptor, 424 nM; on 5-HT1B receptor, 4520 nM; at 5-HT2A receptor [1], 23.2 nM; at 5-HT2A receptor [5], 53.3 nM. For the same compound, the microsomal CLint in the data set “in vitro [2]” was found to be 100 µL/min/mg; in the data set “in vitro [3]” it was 312 µL/min/mg; in the data set “in vitro [4]” it was 222 µL/min/mg. The half-life amounted to 13.8 min in the data set “in vitro [2]”, 4.4 min in the data set “in vitro [3]” and 6.2 min in “in vitro [4]”. Besides, the affinity at 5-HT2A receptor [6], expressed as Ki, was 12 nM.

`CC[C@@H](C)NC(=O)[C@H]1C=C2c3cccc4[nH]cc(c34)C[C@H]2N(C)C1` [Int8a]: the Emax on 5-HT2B receptor was 6.87%; at 5-HT2C receptor, 93.7%; on 5-HT1A receptor, 104%; at 5-HT2A receptor [1], 35.5%; at 5-HT2A receptor [5] it was 72.6%.

With `CCC(CC)NC(=O)[C@H]1C=C2c3cccc4[nH]cc(c34)C[C@H]2N(C)C1` [Int14a], the Emax at 5-HT2B receptor was found to be 1.86%; on 5-HT2C receptor, 119%; on 5-HT1A receptor, 70.3%; at 5-HT2A receptor [1], 44.3%; on 5-HT2A receptor [5], 33%.

For `CCNC(=O)[C@@H]1C=C2c3cccc4[nH]cc(c34)C[C@H]2N(Cc2cccc(OC)c2)C1` [Compound 63, (6aR,9R)—N-ethyl-7-(3-methoxybenzyl)-4,6,6a,7,8,9-hexahydroindolo[4,3-fg]quinoline-9-carboxamide], the Emax at 5-HT2B receptor was -0.31%; at 5-HT1A receptor, 88.4%; at 5-HT1B receptor, 45.7%; on 5-HT2A receptor [1], 64%; at 5-HT2A receptor [5], 91%. Further, the EC50 at 5-HT2B receptor was more than 10000 nM; at 5-HT1A receptor, 6110 nM; at 5-HT1B receptor, more than 10000 nM; at 5-HT2A receptor [1], 12.6 nM; on 5-HT2A receptor [5], 96.9 nM. For the same compound, the microsomal CLint came out at 442 µL/min/mg in the data set “in vitro [2]”, 1610 µL/min/mg in “in vitro [3]” and 645 µL/min/mg in “in vitro [4]”. Moreover, the results for the half-life in “in vitro [2]”, in the data set “in vitro [3]” and in “in vitro [4]” were 3.1 min, 0.9 min and 2 min, respectively. The affinity at 5-HT2A receptor [6], expressed as Ki, was 11.3 nM.

Take `CCCN1C[C@@H](C(=O)N[C@H](C)CC)C=C2c3cccc4[nH]cc(c34)C[C@H]21` [Compound 3a, (6aR,9S)—N—((R)-sec-butyl)-7-propyl-4,6,6a,7,8,9-hexahydroindolo[4,3-fg]quinoline-9-carboxamide]: the Emax amounted to 52.8% at 5-HT2B receptor; 109% on 5-HT2C receptor (setting [7]); 108% at 5-HT1A receptor; 113% on 5-HT2A receptor [1]; 92% on 5-HT2A receptor [5]. The “half-life (t1/2)” value in the data set “in vitro [2]” stood at 2.2 min; in the data set “in vitro [3]”, 0.6 min; in the data set “in vitro [4]”, 1.4 min.

Regarding `CC[C@@H](C)NC(=O)[C@H]1C=C2c3cccc4[nH]cc(c34)C[C@H]2N(CC)C1` [Compound 5a, (6aR,9S)—N—((R)-sec-butyl)-7-ethyl-4,6,6a,7,8,9-hexahydroindolo[4,3-fg]quinoline-9-carboxamide], the Emax on 5-HT2B receptor stood at 43.7%; at 5-HT2C receptor (setting [7]), 99.4%; on 5-HT1A receptor it was 112%; on 5-HT2A receptor [1] it was 62.4%; at 5-HT2A receptor [5], 89.6%. The “half-life (t1/2)” value was found to be 5.5 min in “in vitro [2]”, 1.7 min in “in vitro [3]” and 3.1 min in “in vitro [4]”.
